Test results reported in patent publication US20220362396A1, “AMINO-PYRAZINECARBOXAMIDE COMPOUNDS, CONJUGATES, AND USES THEREOF” (Silverback Therapeutics, Inc., priority 2018, published 2022).

Experiments:
[1] = test system: TGFβ/SMAD Signaling Pathway SBE reporter cell line; experiment: TGFβ reporter assay, in vitro small molecule screening (luciferase); format: cell-based; details: TGFβ stimulation, luminescence
Method in brief: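 SBE luciferase reporter cells (~0.5×10^6 cells/mL) preincubated with compound 5-6 h at 37 °C in 0.5% FBS MEM, then stimulated with TGFβ (12 ng/mL stock) for 18 h. Luminescence read after luciferase substrate; EC50 from curve fits.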

[2] = molecular target: T1, TGFBR2 (Homo sapiens, UniProt P37173); experiment: TGFBR2 RBC assay (enzyme inhibition assay, Reaction Biology Corp.); format: biochemical
T1 construct: purchased Reaction Biology Corp
Experimental: Compounds of the disclosure were also assayed by Reaction Biology Corp. using the TGFBR2 RBC assay (enzyme inhibition assay). […] NT refers to not tested.

[3] = test system: elastin gene expression in LL97a cells; experiment: qPCR of TGFβ-induced elastin mRNA in LL97a IPF fibroblasts; format: cell-based, human; details: small molecules, TGFβ 24 hours, concentration dependent
Experimental: (§1) The ability of select small molecules to lower a TGFβ 1-induced mRNA were tested in assays with the cell line LL97a (ATCC) as follows. LL97a cells were seeded in 96 well plates at 10,000 cells/well in DMEM+10% FBS+1% NaPyr, +1% L-glut, +1% NEAA, +1% HEPES+0.5% Pen/Strep. The following day test articles and controls were added at varying concentrations in assay media of DMEM+0.5% BSA along with 0.5 ng/mL TGFβ1 (PeproTech Inc.) was added to wells. After 24 hours or 48 hours incubation with TGFβ1 at 37 C in a 5% CO2 environment RNA was prepared from cells and QPCR performed for the TGFβ-inducible genes αSMA and elastin as well as the non-inducible control gene RPLPO with a Tagman® Gene Expression Cells-to-CT 1—Step Kit (Life Technologies Inc.) and with a One Step Plus Thermocycler (Applied Biosystems) as per manufacturers' recommendations. Primer probe sets were obtained from ThermoFisher Scientific.

[4] = test system: αSMA gene expression in LL97a cells; experiment: qPCR of TGFβ-induced αSMA mRNA in LL97a IPF fibroblasts; format: cell-based, human; details: small molecules, TGFβ 24 hours, concentration dependent
Experimental: as §1
Compounds 2.1 and 171 were covalently attached to an anti-LRRC15 antibody using different protease cleavable PABC linkers. […] Average DAR level of the purified species was determined by analysis via hydrophobic interaction chromatography (HIC) using TSK-gel butyl NPR (Tosoh Bioscience LLC) and by LCMS (Waters Corp.) and they were tested for their ability to reduce αSMA and elastin gene induction by TGFβ in the LL97a and NHLF human fibroblast cell lines using a qPCRassay. […]

[5] = molecular target: T2, full length human LRRC15 (human, UniProt Q8TF66 22-581); experiment: cell-based or functional assay
T2 sequence (looked up): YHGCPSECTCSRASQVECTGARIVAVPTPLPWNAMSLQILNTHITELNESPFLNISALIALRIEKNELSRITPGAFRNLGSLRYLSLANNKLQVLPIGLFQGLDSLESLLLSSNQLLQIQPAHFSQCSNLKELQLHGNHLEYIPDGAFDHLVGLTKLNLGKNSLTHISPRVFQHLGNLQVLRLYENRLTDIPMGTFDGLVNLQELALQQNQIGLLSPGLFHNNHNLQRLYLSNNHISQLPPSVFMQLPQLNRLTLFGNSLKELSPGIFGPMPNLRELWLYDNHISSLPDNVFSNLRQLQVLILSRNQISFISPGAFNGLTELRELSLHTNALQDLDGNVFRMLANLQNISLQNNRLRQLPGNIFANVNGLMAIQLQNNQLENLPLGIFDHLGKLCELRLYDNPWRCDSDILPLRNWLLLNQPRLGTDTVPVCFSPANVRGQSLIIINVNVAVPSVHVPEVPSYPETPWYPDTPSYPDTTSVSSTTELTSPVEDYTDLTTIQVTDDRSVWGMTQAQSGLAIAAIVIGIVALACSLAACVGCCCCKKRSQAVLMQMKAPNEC

T1 sequence (P37173 23-567): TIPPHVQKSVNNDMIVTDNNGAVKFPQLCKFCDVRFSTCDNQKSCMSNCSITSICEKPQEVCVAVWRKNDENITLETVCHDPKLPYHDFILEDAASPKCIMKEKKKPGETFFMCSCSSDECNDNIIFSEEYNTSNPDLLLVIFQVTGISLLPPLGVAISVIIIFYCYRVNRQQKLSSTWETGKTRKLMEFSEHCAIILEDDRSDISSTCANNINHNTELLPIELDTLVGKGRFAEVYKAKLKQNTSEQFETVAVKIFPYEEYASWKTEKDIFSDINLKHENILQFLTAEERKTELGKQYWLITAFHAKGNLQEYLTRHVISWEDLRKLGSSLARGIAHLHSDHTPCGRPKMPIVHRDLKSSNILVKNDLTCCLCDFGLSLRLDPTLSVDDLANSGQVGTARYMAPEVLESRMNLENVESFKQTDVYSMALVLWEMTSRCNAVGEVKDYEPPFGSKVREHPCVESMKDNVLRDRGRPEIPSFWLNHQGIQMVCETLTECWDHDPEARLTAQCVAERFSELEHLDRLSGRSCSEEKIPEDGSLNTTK

With `Nc1ncc(-c2ccc3c(c2)CCC(O)C3)nc1C(=O)Nc1cnccc1N1CCOCC1` (stereo not drawn) [Compound 249] the EC50 [1] was 100 to 1000 nM and the IC50 [2] was < 50 nM.

`Nc1ncc(-c2ccc3c(c2)C(O)CC3)nc1C(=O)Nc1cnccc1N1CCOCC1` (stereo not drawn) [Compound 250] was tested, and the “inhibition of TGFβ-induction of elastin gene expression” value [3] was “inhibits”, the EC50 [1] was 100 to 1000 nM and the “inhibition of TGFβ-induction of αSMA gene expression” value [4] was “inhibits”. For the same molecule, the IC50 [2] was < 50 nM.

`Nc1ncc(-c2ccc3c(c2)C(O)CCC3)nc1C(=O)Nc1cnccc1N1CCOCC1` (stereo not drawn) [Compound 251] was tested, and the EC50 [1] was 100 to 1000 nM and the IC50 [2] was < 50 nM.

For `Nc1ncc(-c2ccc3ccccc3c2)nc1C(=O)Nc1cnccc1N1CCOCC1` [Compound 252], the EC50 [1] was 100 to 1000 nM and the IC50 [2] was < 50 nM.

In the case of `Nc1ncc(-c2cccc3ccccc23)nc1C(=O)Nc1cnccc1N1CCOCC1` [Compound 253], the EC50 [1] is reported as > 1000 nM and the IC50 [2] is reported as 100 to 1000 nM.

In the case of `CNc1ncc(-c2ccc(OC(C)CN)cc2)nc1C(=O)Nc1cnccc1N1CCOCC1` (stereo not drawn) [Compound 254], the EC50 [1] is reported as > 1000 nM and the IC50 [2] is reported as > 1000 nM.

In the case of `CC(CN)Oc1ccc(-c2cnc(N)c(C(=O)Nc3cnccc3N3CCCOCC3)n2)cc1` (stereo not drawn) [Compound 256], the EC50 [1] is reported as 100 to 1000 nM and the IC50 [2] is reported as 50 to 100 nM.

For `CC(CN)Oc1ccc(-c2cnc(N)c(C(=O)Nc3cnccc3N3CCCCOCC3)n2)cc1` (stereo not drawn) [Compound 257], the EC50 [1] was > 1000 nM and the IC50 [2] was < 50 nM.

`Nc1ncc(-c2ccc(N3CCOCC3)cc2)nc1C(=O)Nc1cnccc1N1CCOCC1` [Compound 258] was tested, and the EC50 [1] was < 50 nM and the IC50 [2] was < 50 nM.

With `CN(C)c1ccc(-c2cnc(N)c(C(=O)Nc3cnccc3N3CCOCC3)n2)cc1` [Compound 259] the EC50 [1] was < 50 nM and the IC50 [2] was < 50 nM.

`CNc1ccc(-c2cnc(N)c(C(=O)Nc3cnccc3N3CCOCC3)n2)cc1` [Compound 260] was tested, and the EC50 [1] was < 50 nM and the IC50 [2] was < 50 nM.

With `CC(CN)Oc1ccc(-c2cnc(N)c(C(=O)Nc3cnccc3N3CCCOCCC3)n2)cc1` (stereo not drawn) [Compound 261] the EC50 [1] was > 1000 nM and the IC50 [2] was > 1000 nM.

For `Nc1ncc(-c2ccc(N3CCCC3)cc2)nc1C(=O)Nc1cnccc1N1CCOCC1` [Compound 262], the EC50 [1] was 100 to 1000 nM and the IC50 [2] was < 50 nM.

With `COC(=O)[C@@H](N)CCOc1ccc(-c2cnc(N)c(C(=O)Nc3cnccc3N3CCOCC3)n2)cc1` [Compound 263] the EC50 [1] was 100 to 1000 nM and the IC50 [2] was < 50 nM.

In the case of `COC(=O)[C@H](CCOc1ccc(-c2cnc(N)c(C(=O)Nc3cnccc3N3CCOCC3)n2)cc1)NC(=O)OCc1ccccc1` [Compound 264], the EC50 [1] is reported as > 1000 nM and the IC50 [2] is reported as < 50 nM.

For `Nc1ncc(-c2ccc(OCC[C@H](NC(=O)OCc3ccccc3)C(=O)O)cc2)nc1C(=O)Nc1cnccc1N1CCOCC1` [Compound 265], the EC50 [1] was > 1000 nM and the IC50 [2] was < 50 nM.

`CC(C)(C)OC(=O)NCCNc1ccc(-c2cnc(N)c(C(=O)Nc3cnccc3N3CCOCC3)n2)cc1` [Compound 266] was tested, and the EC50 [1] was 100 to 1000 nM and the IC50 [2] was < 50 nM.

In the case of `CN(CCNC(=O)OC(C)(C)C)c1ccc(-c2cnc(N)c(C(=O)Nc3cnccc3N3CCOCC3)n2)cc1` [Compound 267], the EC50 [1] is reported as 100 to 1000 nM and the IC50 [2] is reported as < 50 nM.

For `Nc1ncc(-c2ccc(OCC[C@H](N)C(=O)O)cc2)nc1C(=O)Nc1cnccc1N1CCOCC1` [Compound 268], the EC50 [1] was > 1000 nM and the IC50 [2] was < 50 nM.

For `COC(=O)[C@H](N)CCOc1ccc(-c2cnc(N)c(C(=O)Nc3cnccc3N3CCOCC3)n2)cc1` [Compound 269], the EC50 [1] was 100 to 1000 nM and the IC50 [2] was < 50 nM.

For `COC(=O)[C@@H](CCOc1ccc(-c2cnc(N)c(C(=O)Nc3cnccc3N3CCOCC3)n2)cc1)NC(=O)OCc1ccccc1` [Compound 270], the EC50 [1] was 100 to 1000 nM and the IC50 [2] was < 50 nM.

With `NCCNc1ccc(-c2cnc(N)c(C(=O)Nc3cnccc3N3CCOCC3)n2)cc1` [Compound 271] the EC50 [1] was 100 to 1000 nM and the IC50 [2] was < 50 nM.

`CN(CCN)c1ccc(-c2cnc(N)c(C(=O)Nc3cnccc3N3CCOCC3)n2)cc1` [Compound 272] was tested, and the EC50 [1] was 50 to 100 nM and the IC50 [2] was < 50 nM.

In the case of `CC(C)(C)OC(=O)N[C@H]1CCN(c2ccc(-c3cnc(N)c(C(=O)Nc4cnccc4N4CCOCC4)n3)cc2)C1` [Compound 273], the EC50 [1] is reported as 100 to 1000 nM and the IC50 [2] is reported as < 50 nM.

`CC(C)(C)OC(=O)N[C@@H]1CCN(c2ccc(-c3cnc(N)c(C(=O)Nc4cnccc4N4CCOCC4)n3)cc2)C1` [Compound 274] was tested, and the EC50 [1] was 100 to 1000 nM and the IC50 [2] was < 50 nM.

In the case of `Nc1ncc(-c2ccc(OCC[C@@H](N)C(=O)O)cc2)nc1C(=O)Nc1cnccc1N1CCOCC1` [Compound 275], the EC50 [1] is reported as > 1000 nM and the IC50 [2] is reported as 50 to 100 nM.

In the case of `Nc1ncc(-c2ccc(OCC[C@@H](NC(=O)OCc3ccccc3)C(=O)O)cc2)nc1C(=O)Nc1cnccc1N1CCOCC1` [Compound 276], the EC50 [1] is reported as > 1000 nM and the IC50 [2] is reported as < 50 nM.

In the case of `Nc1ncc(-c2ccc(N3CC[C@H](N)C3)cc2)nc1C(=O)Nc1cnccc1N1CCOCC1` [Compound 277], the EC50 [1] is reported as 50 to 100 nM and the IC50 [2] is reported as < 50 nM.

`Nc1ncc(-c2ccc(N3CC[C@@H](N)C3)cc2)nc1C(=O)Nc1cnccc1N1CCOCC1` [Compound 278] was tested, and the EC50 [1] was 50 to 100 nM and the IC50 [2] was < 50 nM.

For `Nc1ncc(-c2ccc(N3CCC(N)CC3)cc2)nc1C(=O)Nc1cnccc1N1CCOCC1` [Compound 279], the EC50 [1] was 50 to 100 nM and the IC50 [2] was < 50 nM.

With `CC(C)(C)OC(=O)NC1CCN(c2ccc(-c3cnc(N)c(C(=O)Nc4cnccc4N4CCOCC4)n3)cc2)CC1` [Compound 280] the EC50 [1] was 100 to 1000 nM and the IC50 [2] was < 50 nM.

B1: anti-LRRC15 humanized IgG1 M25 antibody with Fc null domain conjugated to LP1 (antibody, V domains shown)
VH: EVQLVQSGAEVKKPGASVKVSCKASGYKFSSYWIEWVKQAPGQGLEWIGEILPGSDTTNYNEKFKDRATFTSDTSINTAYMELSRLRSDDTAVYYCARDRGNYRAWFGYWGQGTLVTVSS
VL: DIQMTQSPSSLSASVGDRVTITCRASQDISNYLNWYQQKPGGAVKFLIYYTSRLHSGVPSRFSGSGSGTDYTLTISSLQPEDFATYFCQQGEALPWTFGGGTKVEIK
modifications: linker-payload LP1 on interchain disulfide cysteines, average DAR 2.5-4
B1 was tested, and the “absolute IC50 of TGFβ1-induced SMAD2 promoter luciferase activity, HEK293 reporter cells expressing human LRRC15” value [5] was < 10 nM.

B2: anti-LRRC15 humanized IgG1 M25 antibody with Fc null domain conjugated to LP10 (antibody, V domains shown)
VH: EVQLVQSGAEVKKPGASVKVSCKASGYKFSSYWIEWVKQAPGQGLEWIGEILPGSDTTNYNEKFKDRATFTSDTSINTAYMELSRLRSDDTAVYYCARDRGNYRAWFGYWGQGTLVTVSS
VL: DIQMTQSPSSLSASVGDRVTITCRASQDISNYLNWYQQKPGGAVKFLIYYTSRLHSGVPSRFSGSGSGTDYTLTISSLQPEDFATYFCQQGEALPWTFGGGTKVEIK
modifications: linker-payload LP10 on interchain disulfide cysteines, average DAR 2.5-4
With B2 the “absolute IC50 of TGFβ1-induced SMAD2 promoter luciferase activity, HEK293 reporter cells expressing human LRRC15” value [5] was < 10 nM.
